The results in this text go back to patent US7888527B2 (University of Virginia Patent Foundation, priority 2004, dated 2011).

Assay [1] concerns the target T1, human S1P3 receptor (Homo sapiens, UniProt Q99500). The assay is described as follows: [γ-35S]GTP binding assay, HEK293T membranes (agonism and Schild antagonism). It is filed as biochemical. Set-up: expressed in transfected cells; host or cells: HEK293T, transient transfection; membranes; key to Schild analysis flag on pKb S1P3: *: Based on Schild analysis, the antagonism observed was not competitive. To be noted: for Kb: read-out: pKb S1P3 (converted); for Agonist efficacy class S1P3: relative to S1P Emax. An excerpt:
(§1) The appropriate receptor plasmid DNA (encoding human S1P1, human S1P2, human S1P3, human S1P4, human S1P5, human LPA1, human LPA2 or human LPA3 receptors) is mixed with equal amounts of expression plasmids encoding human Gi2α (for S1P3, a mutated (C352F) rat Gi2α is used), cow β1, and cow γ2 proteins, and these DNAs are used to transfect monolayers of HEK293T cells (where ‘T’ indicates expression of the SV-40 virus large T antigen) using the calcium phosphate precipitate method (7). After about 60 hours, cells are harvested, membranes prepared, aliquoted, and stored at −70° C. until use (8).
(§2) The [γ-^35S]GTP binding assay is performed as described previously (8). Membranes containing 1-5 μg of protein are incubated in 0.1 ml of binding buffer (in mM: HEPES/50, NaCl/100, MgCl2/10, pH 7.5) containing 5 μg of saponin, 10 μM GDP, 0.1 nM [γ-^35S]GTP (1200 Ci/mmol), and indicated lipid(s) for 30 min at 30° C. and collected using a Brandel Cell Harvester (Gaithersburg, Md.). Samples are then analyzed for bound radionuclide.
(§3) Briefly, nonlinear analysis of the best-fit line generated by plotting the negative log of the EC50 values obtained from agonist dose-response curves, in the absence and presence of varying concentrations of antagonist, was plotted against the concentration of antagonist to give the Kb value.
(§4) Statistical Analysis. The EC50 and IC50 values for all dose response curves were determined by nonlinear regression analysis of all data using the Graphpad Prism© program. The error associated with the data collected is reported as the standard error of the mean (S.E.M).

In assay [2] the target is T2, human S1P1 receptor (Homo sapiens, UniProt P21453). The experiment in a line: Cell migration assay, T24 cells transfected stably with human S1P1 receptor. To be noted: 50 nM antagonist. It is filed as cell-based. Details: expressed in transfected cells. As for the experimental part:
[…] monolayers are co-transfected with the human S1P1, S1P2, S1P3 receptor encoding DNAs and the pIRESpuro2 plasmid DNA (Clontech, San Jose, Calif.,) using either Lipofectamine 2000 (Invitrogen, Carlsbad, Calif.) or FuGENE 6 (Roche Applied Science, Indianapolis, Ind.). Clonal populations expressing the puromycin acetyltransferase gene are selected by addition of puromycin (Sigma-Aldrich, St. Louis, Mo.) to the culture media. T24 cells are grown in monolayers at 37° C. in a 5% CO2/95% air atmosphere in growth media consisting of: 95% DMEM/F-12 medium and 10% charcoal/dextran stripped FBS.
Cell migration assays are performed using modified Boyden chambers (tissue culture-treated, 24-mm diameter, 10-μm thickness, 8-μm pores, Transwell®; Costar Corp., Cambridge, Mass.) containing polycarbonate membranes that are coated on the underside with 0.1% gelatin. The underside of the polycarbonate membranes is rinsed once with migration media (DMEM/F12 without Phenol Red and 0.1% fatty acid free BSA) and then immersed in the lower chamber containing two milliliters of migration media. T24 cells transfected stably with human S1P1 receptor DNA were grown in DMEM/F12 media containing charcoal/dextran stripped FBS and 10 μg/ml puromycin to 100% confluence in 150×2.5 mm tissue culture plates and serum starved at least 12 hours. Serum-starved cells were removed from culture dishes with 10× Trypsin-EDTA (Hanks' balanced salt solution containing 5 mM EDTA and 25 mM HEPES, pH 7.2, and 0.1% trypsin; Invitrogen, San Diego, Calif.), suspended in migration buffer and collected by centrifugation at 130×g for 5 minutes. The supernatant fluid was removed by aspiration and cell pellet resuspended in migration media (10^6 cells/ml). […] The non-migrating cells in the upper chamber were removed by aspiration and the migratory cells attached to the bottom surface of the membrane were isolated by incubation in 10× Trypsin-EDTA for 1 min at room temperature and gently tapping the plate to dislodge cells from the membrane. The mass of migratory cells per membrane was evaluated by combining 100 μl of cell suspension with an equal volume of CyQuant dye solution (3.0 ml of 2× lysis buffer and 15 μl CyQuant dye), and the resulting fluorescence quantified using the FlexStation™ fluorimeter (Molecular Devices, Menlo Park, Calif.). Each determination represents the average of two individual migration chambers. […] The monolayer was washed three times with phosphate buffered saline and processed immediately for the cell migration assay, as described above.

Assay [3] addresses T2, human S1P1 receptor. The experiment in a line: [32P]S1P binding assay, HEK293T membranes. Details: expressed in transfected cells; host or cells: HEK293T, transient transfection; membranes. To be noted: read-out: pKi S1P1 (converted). As for the experimental part: (§5) [^32P]-S1P was prepared by incubating sphingosine and [γ-^32P]ATP with cell lysate from HEK293T cells transiently transfected with human sphingosine kinase type 2 DNA. The 200 μl reaction contained 0.025 mM sphingosine, 1 mCi [γ-^32P]ATP (7000 Ci/mmol) and kinase buffer (in mM: Mg(C2H3O2)2 (in 50 mM Tris, pH 7.5)/10, NaF/10, and semicarbizide/2). The reaction was initiated by the addition of 20 μg of cell lysate and incubated at 37° C. for at least 30 minutes. […] The organic layer was isolated and the extraction procedure repeated two additional times with the remaining aqueous fraction. The combined organic fractions were dried under a stream of nitrogen gas and resuspended in aqueous 0.1% fatty acid free BSA.
(§6) Bound ligand was separated from free ligand by rapid filtration and analyzed in a liquid scintillation counter.
as §4

Another assay addresses T3, human S1P5 receptor (Homo sapiens, UniProt Q9H228).
T3 construct: expressed in transfected cells; host or cells: HEK293T, transient transfection; membranes
The experiment in a line: [γ-35S]GTP binding assay, HEK293T membranes. It is filed as biochemical. To be noted: for EC50: -log molar concentration giving 50% of maximal [γ-35S]GTP binding, ± S.E.M., read-out: pEC50 S1P5 (converted); for Agonist efficacy class S1P5: relative to S1P Emax.
From the text: as §1, §2, §4

In another assay the target is T4, S1P2 receptor (Homo sapiens, UniProt O95136).
T4 construct: expressed in transfected cells; host or cells: HEK293T, transient transfection; membranes
T4 sequence (O95136 whole entry): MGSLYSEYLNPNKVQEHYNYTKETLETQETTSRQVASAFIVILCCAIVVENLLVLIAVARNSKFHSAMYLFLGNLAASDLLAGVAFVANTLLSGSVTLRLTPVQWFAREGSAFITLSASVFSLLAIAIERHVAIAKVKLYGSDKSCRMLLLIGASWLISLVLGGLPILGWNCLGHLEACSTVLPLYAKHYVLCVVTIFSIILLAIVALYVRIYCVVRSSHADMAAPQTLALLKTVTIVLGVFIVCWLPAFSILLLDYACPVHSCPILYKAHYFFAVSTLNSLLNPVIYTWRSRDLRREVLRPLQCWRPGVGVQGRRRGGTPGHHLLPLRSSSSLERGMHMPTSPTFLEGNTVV
The assay is described as follows: [γ-35S]GTP binding assay, HEK293T membranes. It is filed as biochemical. The note with it: for EC50: -log molar concentration giving 50% of maximal [γ-35S]GTP binding, ± S.E.M., read-out: pEC50 S1P2 (converted).
From the text: as §1, §2, §4

The next assay addresses T5, human S1P4 receptor (Homo sapiens, UniProt O95977).
T5 construct: expressed in transfected cells; host or cells: HEK293T, transient transfection; membranes
T5 sequence (O95977 1-384): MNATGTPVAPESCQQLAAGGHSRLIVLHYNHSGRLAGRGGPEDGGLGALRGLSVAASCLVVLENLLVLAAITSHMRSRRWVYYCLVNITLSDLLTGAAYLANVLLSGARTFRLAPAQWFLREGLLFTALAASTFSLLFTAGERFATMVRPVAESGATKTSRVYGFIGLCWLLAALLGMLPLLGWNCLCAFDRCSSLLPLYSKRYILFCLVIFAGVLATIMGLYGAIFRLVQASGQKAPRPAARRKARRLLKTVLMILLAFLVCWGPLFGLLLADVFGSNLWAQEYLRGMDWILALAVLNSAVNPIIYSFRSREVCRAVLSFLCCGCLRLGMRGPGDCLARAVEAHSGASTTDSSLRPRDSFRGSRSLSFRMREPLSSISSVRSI
The experiment in a line: [γ-35S]GTP binding assay, HEK293T membranes. It is filed as biochemical. To be noted: -log molar concentration giving 50% of maximal [γ-35S]GTP binding; ± S.E.M.; read-out: pEC50 S1P4 (converted).
From the text: as §1, §2, §4

For assay [4], the target named is T2, human S1P1 receptor. The assay is described as follows: [γ-35S]GTP binding assay, HEK293T membranes (agonism and Schild antagonism). Details: expressed in transfected cells; host or cells: HEK293T, transient transfection; membranes; key to Schild analysis flag on pKb S1P1: *: Based on Schild analysis, the antagonism observed was not competitive. It is filed as biochemical. The note with it: for Kb: read-out: pKb S1P1 (converted); for Agonist efficacy class S1P1: relative to S1P Emax; for EC50: -log molar concentration giving 50% of maximal [γ-35S]GTP binding, ± S.E.M., read-out: pEC50 S1P1 (converted).
From the text: as §1, §2, §3, §4

In assay [5] the target is T1, human S1P3 receptor. The assay is described as follows: [32P]S1P binding assay, HEK293T membranes. The note with it: for Ki: read-out: pKi S1P3 (converted). Set-up: expressed in transfected cells; host or cells: HEK293T, transient transfection; membranes. As for the experimental part:
as §5, §6, §4

T1 sequence (Q99500 whole entry): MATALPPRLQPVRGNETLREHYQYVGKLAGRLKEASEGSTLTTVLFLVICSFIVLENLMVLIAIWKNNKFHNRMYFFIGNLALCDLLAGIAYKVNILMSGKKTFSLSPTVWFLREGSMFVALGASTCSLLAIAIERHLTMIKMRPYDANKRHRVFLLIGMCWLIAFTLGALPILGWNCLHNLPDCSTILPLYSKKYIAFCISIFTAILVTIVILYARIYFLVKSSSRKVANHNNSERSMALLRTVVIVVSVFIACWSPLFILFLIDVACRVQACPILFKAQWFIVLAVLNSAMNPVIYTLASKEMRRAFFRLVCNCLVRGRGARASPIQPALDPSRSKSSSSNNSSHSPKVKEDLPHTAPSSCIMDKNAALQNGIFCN
T3 sequence (Q9H228 whole entry): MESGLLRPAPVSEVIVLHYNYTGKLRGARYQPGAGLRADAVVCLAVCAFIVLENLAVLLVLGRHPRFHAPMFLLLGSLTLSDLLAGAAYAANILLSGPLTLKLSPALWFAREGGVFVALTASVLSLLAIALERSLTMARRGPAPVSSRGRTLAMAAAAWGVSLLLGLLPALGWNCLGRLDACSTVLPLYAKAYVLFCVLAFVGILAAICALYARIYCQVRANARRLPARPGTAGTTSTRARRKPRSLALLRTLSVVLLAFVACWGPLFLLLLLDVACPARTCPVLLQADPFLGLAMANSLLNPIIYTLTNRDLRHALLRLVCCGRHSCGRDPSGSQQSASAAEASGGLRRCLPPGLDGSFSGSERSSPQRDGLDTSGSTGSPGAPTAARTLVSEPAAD
T2 sequence (P21453 whole entry): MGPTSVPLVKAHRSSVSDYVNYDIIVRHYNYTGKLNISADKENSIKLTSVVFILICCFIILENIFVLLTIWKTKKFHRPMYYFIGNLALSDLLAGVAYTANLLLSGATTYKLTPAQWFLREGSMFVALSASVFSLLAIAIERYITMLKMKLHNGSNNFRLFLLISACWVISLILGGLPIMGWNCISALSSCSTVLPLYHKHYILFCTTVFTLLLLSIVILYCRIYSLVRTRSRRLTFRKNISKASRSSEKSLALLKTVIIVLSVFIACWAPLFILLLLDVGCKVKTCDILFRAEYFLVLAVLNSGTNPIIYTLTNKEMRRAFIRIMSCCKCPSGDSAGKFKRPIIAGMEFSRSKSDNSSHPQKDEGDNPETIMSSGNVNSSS

Regarding `CCCCCCc1cccc(NC(=O)[C@H](N)COP(=O)(O)O)c1` [VPC23031], at human S1P3 receptor [1], the “Schild analysis flag on pKb S1P3” value is “*”, the Kb is 10500 nM and the “Agonist efficacy class S1P3” value was “na (no agonist activity (<10% of S1P Emax))”. The “Blockade of VPC22277 (10 nM)-induced migration” value (shortened to “Blockade of VPC22277”) on human S1P1 receptor [2] was “Blockade”. The Ki at human S1P1 receptor [3] was 61.7 nM. On human S1P5 receptor, the EC50 is 135 nM and the “Agonist efficacy class S1P5” value is “(wpa) (weak partial agonist activity (10-50% of S1P Emax))”. For the same compound, the EC50 on S1P2 receptor is more than 10000 nM. Also, the EC50 on human S1P4 receptor is 1100 nM. Also, at human S1P1 receptor [4], the Kb was 135 nM and the “Agonist efficacy class S1P1” value was “na (no agonist activity (<10% of S1P Emax))”.
Take `CCCCCCCCCCc1cccc(NC(=O)[C@H](N)COP(=O)(O)O)c1` [VPC23069]: the EC50 at human S1P3 receptor [1] (-log molar concentration giving 50% of maximal [γ-35S]GTP binding, ± S.E.M., read-out: pEC50 S1P3 (converted)) was 1910 nM; at human S1P5 receptor, more than 10000 nM; on S1P2 receptor, more than 10000 nM; on human S1P4 receptor it was 851 nM; on human S1P1 receptor [4], 81.3 nM. The “Agonist efficacy class S1P3” value at human S1P3 receptor [1] is “(wpa) (weak partial agonist activity (10-50% of S1P Emax))”. The “Agonist activity at the S1P1 receptor” value at human S1P1 receptor [4] is listed as “agonists (or partial agonists)”.
Regarding `CCCCCCCCCc1cccc(NC(=O)[C@H](N)COP(=O)(O)O)c1` [VPC23079], the “Agonist efficacy class S1P3” value on human S1P3 receptor [1] is listed as “na (no agonist activity (<10% of S1P Emax))”. For the same compound, at human S1P5 receptor, the “Agonist efficacy class S1P5” value was “na (no agonist activity (<10% of S1P Emax))”. Also, the EC50 was more than 10000 nM at S1P2 receptor, 1170 nM on human S1P4 receptor and 676 nM at human S1P1 receptor [4]. Besides, on human S1P1 receptor [4], the “Agonist activity at the S1P1 receptor” value is on record as “agonists (or partial agonists)”.
`CCCCCCCCc1ccccc1NC(=O)[C@H](N)COP(=O)(O)O` [VPC23089]: the “Schild analysis flag on pKb S1P3” value on human S1P3 receptor [1] is given as “*”. Further, the Kb at human S1P3 receptor [1] is 437 nM; at human S1P1 receptor [4] it was 490 nM. Also, the “Agonist efficacy class S1P3” value at human S1P3 receptor [1] was “na (no agonist activity (<10% of S1P Emax))”. Further, the “Blockade of VPC22277” value at human S1P1 receptor [2] was “Blockade”. Besides, the results for the Ki at human S1P1 receptor [3] and at human S1P3 receptor [5] were 891 nM and 1580 nM, respectively. The EC50 was more than 10000 nM at human S1P5 receptor, more than 10000 nM at S1P2 receptor and 851 nM on human S1P4 receptor. The “Agonist efficacy class S1P1” value on human S1P1 receptor [4] is given as “na (no agonist activity (<10% of S1P Emax))”.
On to `CCCCCCCCc1cccc(NC(=O)[C@@H](N)COP(=O)(O)O)c1` [VPC25027], for which the “Agonist efficacy class S1P3” value at human S1P3 receptor [1] is reported as “na (no agonist activity (<10% of S1P Emax))”. Besides, the “Agonist efficacy class S1P2” value on S1P2 receptor (relative to S1P Emax) is reported as “na (no agonist activity (<10% of S1P Emax))”. Also, on human S1P1 receptor [4], the “Agonist activity at the S1P1 receptor” value was “agonists (or partial agonists)”, the EC50 was 2.24 nM and the “Agonist efficacy class S1P1” value is “(pa) (partial agonist activity (50-85% of S1P Emax))”.
For the compound `CCCCCCCc1cccc(NC(=O)[C@H](N)COP(=O)(O)O)c1` [VPC25239], at human S1P3 receptor [1], the Kb was 1410 nM and the “Agonist efficacy class S1P3” value is given as “na (no agonist activity (<10% of S1P Emax))”. In addition, the “Blockade of VPC22277” value on human S1P1 receptor [2] is recorded as “Blockade”. Further, the Ki on human S1P1 receptor [3] is 13.5 nM. Moreover, on human S1P3 receptor [5], the “Potency at the S1P3 receptor relative to lead compound VPC23019” value is given as “one log order more potent” and the Ki is 97.7 nM. In addition, on human S1P5 receptor, the EC50 is 11.5 nM and the “Agonist efficacy class S1P5” value is listed as “(pa) (partial agonist activity (50-85% of S1P Emax))”. Also, the EC50 on S1P2 receptor is more than 10000 nM. Further, the EC50 on human S1P4 receptor was 166 nM. Further, at human S1P1 receptor [4], the “Schild analysis flag on pKb S1P1” value is “*”, the Kb was 562 nM and the “Agonist efficacy class S1P1” value is on record as “na (no agonist activity (<10% of S1P Emax))”.
